The values below come from US20240299384A1, “METHODS FOR TREATING PULMONARY HYPERTENSION IN PATIENTS WITH LEFT VENTRICULAR ASSIST DEVICE IMPLANTATION” (ACTELION PHARMACEUTICALS LTD, priority 2021, published 2024).

The conditions of data set [1]: cited from earlier work.
Data set [2] deals with healthy male subjects. The data set is described as follows: Phase 1 open-label study of 75 mg qd macitentan with and without up-titration: safety. Type of data set: in vivo, human. On the procedure: This is a single-sequence, open-label, single-center, Phase 1 study in healthy male subjects. The study assessed the effect of 75 mg qd administration of macitentan. The study includes a screening phase of 21 days before the first macitentan administration, followed by an open-label treatment phase. Randomization was not used and subjects received the same treatment.
• 29 subjects were enrolled.
Administration of 75 mg qd macitentan started on Day 1. Macitentan was administered every day in the morning between 8:00 and 11:00 with 240 mL of noncarbonated water. One 75-mg macitentan film-coated tablet was thus administered as multiple qd oral doses under fed conditions.
Subjects were planned to take macitentan 75 mg for 15 days. However the study was interrupted on the morning of day 8, i.e. when subjects had received 7 doses of macitentan 75 mg.
Macitentan was administered in an up-titration regimen in the morning between 8:00 and 11:00 with 240 mL of noncarbonated water. One macitentan film-coated tablet (10 mg, 37.5 mg or 75 mg) was administered as multiple qd oral doses under fed conditions on Days 1-9 and Days 11-12, and under fasted conditions on Days 10 and 13. The up-titration regimen consists of 2 qd doses of 10 mg macitentan and 3 qd doses of 37.5 mg macitentan followed by 8 qd doses of 75 mg macitentan. On Days −4, −3, 10 and 13 (i.e., the days when dosing occurred under fasted conditions), no fluid intake apart from the water taken at the time of macitentan administration was allowed from 1 hour before until 1 hour after administration of macitentan.
All reported AEs with onset during the treatment phase were included in the analysis. The effects on cardiovascular variables were evaluated and the following variables were collected: PR (ms), QRS (ms), QT (ms), QTcB (ms), QTcF (ms), heart rate (bpm), and RR. The normal range for vital signs is defined as follows: • Systolic blood pressure: 100-140 mmHg • Diastolic blood pressure: 60-90 mmHg • Pulse rate: 45-90 bpm • Respiratory rate: 8-20 per minute • Body temperature: 35.0° C. to 37.5° C.
An AE is any untoward medical occurrence, i.e., any unfavorable and unintended sign (including an abnormal finding), symptom, or disease temporally associated with the use of macitentan. A treatment-emergent AE is any occurrence that is new in onset or aggravated in severity from the baseline condition. The following are used to assess all AEs: • Related: There is a reasonable causal relationship between macitentan administration and the AE. • Not Related: There is not a reasonable causal relationship between macitentan administration and the AE.
An assessment of AE severity grade was made using the following general categorical descriptors: • Mild: Awareness of symptoms that are easily tolerated, causing minimal discomfort and not interfering with everyday activities. • Moderate: Sufficient discomfort is present to cause interference with normal activity. • Severe: Extreme distress, causing significant impairment of functioning or incapacitation. Prevents normal everyday activities.

Setting [3] is: 75 mg qd, no titration, 6 subjects.

Consider `CCCNS(=O)(=O)Nc1ncnc(OCCOc2ncc(Br)cn2)c1-c1ccc(Br)cc1` [Macitentan, propylsulfamic acid [5-(4-bromo-phenyl)-6-[2-(5-bromo-pyrimidin-2-yloxy)-ethoxy]-pyrimidin-4-yl]-amide], for which, in data set [1], the “Flushing/feeling of warmth/redness of face and/or hands, Frequency observed with macitentan 10 mg” value is “Uncommon”; the “Headache, Frequency observed with macitentan 10 mg” value is given as “Very”; the “Photophobia, Frequency observed with macitentan 10 mg” value is “Not known”; the “Sinusitis/rhinitis/nasal congestion, Frequency observed with macitentan 10 mg” value was “Common”. For the same compound, in data set [2] (75 mg qd), the reduction in hemoglobin is not above 2 g/dL; the “vital signs, ECG and lab parameters” value was “no clinically significant changes”. Besides, the “severity of AEs overall” value in data set [2] (75 mg qd, AEs reported from Day 2 onwards) was “mainly mild”. Also, in data set [2] (setting [3]), the “Photophobia, Severity of AEs (No titration)” value was “All mild” and the “Sinusitis/rhinitis/nasal congestion, Severity of AEs (No titration)” value is “All mild”. In addition, the “tolerability with up-titration regimen” value in data set [2] (75 mg, up-titration vs no up-titration) is recorded as “improved tolerability”. The “resolution of AEs” value in data set [2] (four days after stopping macitentan) is recorded as “most of the AEs resolved”. For the same compound, the “Sinusitis/rhinitis/nasal congestion, Severity of AEs (With titration)” value in data set [2] (up-titration 10 mg, 37.5 mg, 75 mg qd, 6 subjects) is “Mild, less”. In addition, the completion of treatment result in data set [2] (up-titration regimen cohort) is “All subjects completed treatment”.
